Tests used:
Assay type in all cases: biochemical
[1] = target: T1, MLL1/KMT2A (5 component complex) (Homo sapiens, UniProt Q03164); experiment: HotSpot KMT activity assay, MLL1
T1 construct: MLL1 residues 3745–3969, C-terminus; His (N); purchased Reaction Biology Corporation
Description: (§1) ; MW = 35.4 kDa; Genbank Accession # NM_018489), or the human recombinant EZH2-containing five-member polycomb repressive complex 2 (including EZH2 residues 2–746, AEBP2 2–517, EED 2–441, RbAp48 2–425, SUZ12 2–739; all full-length; with N-terminal Flag-tag on EED and N-terminal His-tag on all others; MW = 333.8 kDa; Genbank Accession # NM_001203247, NM_001114176, NM_003797, NM_005610, NM_015355), or the human recombinant G9a (residues 913–1193, C-terminus; with an N-terminal His-tag; MW = 34.6 kDa; Genbank Accession # NM_006709.3), or the human recombinant MLL1 complex (including MLL1 residues 3745–3969, C-terminus, WDR5 22–334, C-terminus, RbBP5 1–538, C-terminus, ASH2L 2–534, C-terminus, DPY-30 1–99, C-terminus; N-terminal His-tag on all subunits; MW = 212.0 kDa; Genbank Accession # NM_005933, NM_017588, NM_005057, NM_001105214, NM_0325742), or the human recombinant SET7/9 (residues 2–366, C-terminus; with a N-terminal GST-tag and a C-terminal His-tag; MW = 68.5 kDa; Genbank Accession # NM_030648), or the human recombinant SMYD3 (residues 2–428, C-terminus; C-terminal His-tag; MW = 50.1 kDa; Genbank Accession # NM_001167740), or the human recombinant SUV39H2 (residues 46–410, C-terminus; N-terminal fusion protein with a C-terminal His-tag; MW = 98.8 kDa; GenBank Accession No. NM_001193424), or the human recombinant DOT1L (residues 1–416; N-terminal GST-tag; MW = 80.0 kDa; Genbank Accession # NM_032482) was added to a solution of the proper substrate (oligo nucleosomes for ASH1L, MLL1 complex, and DOT1L, final concentration 0.05 mg/mL; core histone for EZH2 complex and SET7/9, final concentration 0.05 mg/mL; histone H3 for SUV39H2, final concentration 5 μM; histone H3 1–21 for G9a, final concentration 2.5 μM) in freshly prepared reaction buffer (50 mM Tris-HCl (pH 8.5), 5 mM MgCl2, 50 mM NaCl, 1 mM DTT, 1 mM PMSF, 1% DMSO) and gently mixed. […] After incubation for 60 min at 30 °C, the reaction mixture was delivered to filter paper for detection (as assessed by scintillation). […] Values obtained for each compound are mean ± SD determined for two separate experiments.

SET7/9/KMT7 = target: T2, SET7/9/KMT7 (Homo sapiens, UniProt Q8WTS6); experiment: HotSpot KMT activity assay, SET7/9; conditions: 10-dose IC50 mode; read-out: ref. cmpd. IC50, SET7/9
T2 construct: the human recombinant SET7/9 (residues 2–366, C-terminus); GST (N); His (C); purchased Reaction Biology Corporation
T2 sequence (Q8WTS6 2-366): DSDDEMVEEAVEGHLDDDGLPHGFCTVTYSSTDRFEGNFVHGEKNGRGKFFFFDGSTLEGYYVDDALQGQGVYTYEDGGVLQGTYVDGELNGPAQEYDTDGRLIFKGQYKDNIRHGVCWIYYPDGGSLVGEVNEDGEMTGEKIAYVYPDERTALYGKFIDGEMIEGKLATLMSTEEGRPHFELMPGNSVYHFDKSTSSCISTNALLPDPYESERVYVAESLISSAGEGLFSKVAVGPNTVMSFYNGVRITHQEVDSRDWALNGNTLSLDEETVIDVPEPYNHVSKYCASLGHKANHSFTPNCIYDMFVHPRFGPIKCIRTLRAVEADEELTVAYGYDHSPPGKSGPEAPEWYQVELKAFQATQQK
Description: as §1

SUV39H2/KMT1B = target: T3, SUV39H2/KMT1B (Homo sapiens, UniProt Q9H5I1); experiment: HotSpot KMT activity assay, SUV39H2; conditions: 10-dose IC50 mode; read-out: ref. cmpd. IC50, SUV39H2
T3 construct: the human recombinant SUV39H2 (residues 46–410, C-terminus); His (C); purchased Reaction Biology Corporation
Description: as §1

SMYD3/KMT3E = target: T4, SMYD3/KMT3E (Homo sapiens, UniProt Q9H7B4); experiment: HotSpot KMT activity assay, SMYD3
T4 construct: the human recombinant SMYD3 (residues 2–428, C-terminus); C-terminal His-tag; His (C); purchased Reaction Biology Corporation
T4 sequence (Q9H7B4 2-428): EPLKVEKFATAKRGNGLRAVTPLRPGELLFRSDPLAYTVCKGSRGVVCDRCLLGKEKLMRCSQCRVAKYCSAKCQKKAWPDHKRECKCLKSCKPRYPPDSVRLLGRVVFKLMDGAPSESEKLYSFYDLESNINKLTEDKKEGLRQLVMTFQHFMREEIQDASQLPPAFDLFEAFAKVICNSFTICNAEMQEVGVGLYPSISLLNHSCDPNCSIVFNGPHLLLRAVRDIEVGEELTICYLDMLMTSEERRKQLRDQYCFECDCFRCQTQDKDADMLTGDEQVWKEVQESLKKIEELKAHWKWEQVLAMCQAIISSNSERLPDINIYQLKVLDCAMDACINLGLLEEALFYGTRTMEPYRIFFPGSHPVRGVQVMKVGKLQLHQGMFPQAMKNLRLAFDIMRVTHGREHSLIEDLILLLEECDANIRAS
Description: as §1

T3 sequence (Q9H5I1 46-410): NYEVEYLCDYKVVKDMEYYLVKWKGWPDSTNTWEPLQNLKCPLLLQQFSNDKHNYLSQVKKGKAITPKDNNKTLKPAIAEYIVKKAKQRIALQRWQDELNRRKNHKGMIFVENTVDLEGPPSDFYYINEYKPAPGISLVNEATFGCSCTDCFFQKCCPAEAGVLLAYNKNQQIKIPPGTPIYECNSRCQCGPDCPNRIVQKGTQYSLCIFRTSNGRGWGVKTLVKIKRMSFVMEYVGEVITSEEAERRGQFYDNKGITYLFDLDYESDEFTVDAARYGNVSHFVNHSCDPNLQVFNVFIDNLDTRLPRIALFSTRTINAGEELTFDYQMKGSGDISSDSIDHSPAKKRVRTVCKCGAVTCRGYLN

SMILES: Nc1ncnc2c1ncn2[C@@H]1O[C@H](CSCC[C@H](N)C(=O)O)[C@@H](O)[C@H]1O [SAH, S-5′-adenosyl-L-homocysteine, reference compound]
- IC50 [1]: 0.3 µM
- IC50 (SET7/9/KMT7): 70.4 µM
- IC50 (SUV39H2/KMT1B): 37.3 µM
- IC50 (SMYD3/KMT3E): 15.9 µM

Source: PMC10578352, “Identification of a Protein Arginine Methyltransferase 7 (PRMT7)/Protein Arginine Methyltransferase 9 (PRMT9) Inhibitor” (Journal of Medicinal Chemistry, 2023)
